Key:
Assay type in all cases: in vivo
[1] = test system: Helicoverpa armigera; experiment: Helicoverpa armigera diet incorporation method; details: third instar larvae, dead and moribund combined, 96 h after release
Method in brief: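 500 ppm stock of compound milled with surfactant and zirconia beads to average particle size below 2 μm, dispersed in DM water, diluted as needed, and mixed into semi-synthetic diet at about 50° C. Single starved third-instar larvae per cell, held at 25° C., 70% RH; dead plus moribund larvae scored as percent mortality at 96 h.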

[2] = test system: Spodoptera litura; experiment: Spodoptera litura diet incorporation method; details: third instar larvae, dead and moribund combined, 96 h after release
Method in brief: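 Compound milled to <2 μm average particle size in surfactant, dispersed in water (500 ppm stock dispersion), then mixed into semi-synthetic diet at ~50° C. One starved third-instar larva per diet cell, 25° C, 70% RH; percent mortality (dead plus moribund) scored at 96 h.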

[3] = test system: Plutella xylostella; experiment: whole plant or invertebrate; details: foliar, cabbage leaf dip, second instar larvae, dead and moribund combined, 72 h after release
Method in brief: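 Compounds milled with zirconia beads into surfactant dispersion (500 ppm stock), diluted in 0.01% Triton-X. Cabbage leaves dipped 10 s, shade-dried 20 min; one second-instar larva per cell, 25 °C, 70% RH. Mortality (dead plus moribund) scored at 72 h.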

Measured: mortality at 300 ppm

CCCNC(=O)c1c(NC(=O)c2cc(Br)nn2-c2ncccc2Cl)c(Cl)cc2ccnn12 [Compound 151, 6-(3-bromo-1-(3-chloropyridin-2-yl)-1H-pyrazole-5-carboxamido)-5-chloro-N-propylpyrazolo[1,5-a]pyridine-7-carboxamide]
> 70%: all assays above

CNC(=O)c1c(NC(=O)c2cc(Cn3nnc(C(F)(F)F)n3)nn2-c2ncccc2Cl)c(Cl)cc2ccnn12 [Compound 153, 5-chloro-6-(1-(3-chloropyridin-2-yl)-3-((5-(trifluoromethyl)-2H-tetrazol-2-yl)methyl)-1H-pyrazole-5-carboxamido)-N-methylpyrazolo[1,5-a]pyridine-7-carboxamide]
> 70%: all assays above

CCNC(=O)c1c(NC(=O)c2cc(Cn3nnc(C(F)(F)F)n3)nn2-c2ncccc2Cl)c(Cl)cc2ccnn12 [Compound 154, 5-chloro-6-(1-(3-chloropyridin-2-yl)-3-((5-(trifluoromethyl)-2H-tetrazol-2-yl)methyl)-1H-pyrazole-5-carboxamido)-N-ethylpyrazolo[1,5-a]pyridine-7-carboxamide]
> 70%: all assays above

CCNC(=O)c1c(NC(=O)c2cc(Br)nn2-c2ncccc2Cl)ccc2ccnn12 [Compound 157, 6-(3-bromo-1-(3-chloropyridin-2-yl)-1H-pyrazole-5-carboxamido)-N-ethylpyrazolo[1,5-a]pyridine-7-carboxamide]
> 70%: all assays above

CNC(=O)c1c(NC(=O)c2cc(C(F)(F)F)nn2-c2ncccc2Cl)c(Cl)cc2ccnn12 [Compound 162, 5-chloro-6-(1-(3-chloropyridin-2-yl)-3-(trifluoromethyl)-1H-pyrazole-5-carboxamido)-N-methylpyrazolo[1,5-a]pyridine-7-carboxamide]
> 70%: all assays above

CNC(=O)c1c(NC(=O)c2cc(Cn3nnc(C(F)(F)F)n3)nn2-c2ncccc2Cl)c(C)cc2ccnn12 [Compound 166, 6-(1-(3-chloropyridin-2-yl)-3-((5-(trifluoromethyl)-2H-tetrazol-2-yl)methyl)-1H-pyrazole-5-carboxamido)-N,5-dimethylpyrazolo[1,5-a]pyridine-7-carboxamide]
> 70%: all assays above

CCNC(=O)c1c(NC(=O)c2cc(Cn3nnc(C(F)(F)F)n3)nn2-c2ncccc2Cl)c(C)cc2ccnn12 [Compound 167, 6-(1-(3-chloropyridin-2-yl)-3-((5-(trifluoromethyl)-2H-tetrazol-2-yl)methyl)-1H-pyrazole-5-carboxamido)-N-ethyl-5-methylpyrazolo[1,5-a]pyridine-7-carboxamide]
> 70%: all assays above

Cc1cc2ccnn2c(C(=O)NC(C)(C)C)c1NC(=O)c1cc(Cn2nnc(C(F)(F)F)n2)nn1-c1ncccc1Cl [Compound 170, N-(tert-butyl)-6-(1-(3-chloropyridin-2-yl)-3-((5-(trifluoromethyl)-2H-tetrazol-2-yl)methyl)-1H-pyrazole-5-carboxamido)-5-methylpyrazolo[1,5-a]pyridine-7-carboxamide]
> 70%: all assays above

COCC(C)(C)NC(=O)c1c(NC(=O)c2cc(Br)nn2-c2ncccc2Cl)c(C)cc2ccnn12 [Compound 174, 6-(3-bromo-1-(3-chloropyridin-2-yl)-1H-pyrazole-5-carboxamido)-N-(1-methoxy-2-methylpropan-2-yl)-5-methylpyrazolo[1,5-a]pyridine-7-carboxamide]
> 70%: all assays above

Cc1cc2ccnn2c(C(=O)NCC(F)F)c1NC(=O)c1cc(Br)nn1-c1ncccc1Cl [Compound 186, 6-(3-bromo-1-(3-chloropyridin-2-yl)-1H-pyrazole-5-carboxamido)-N-(2,2-difluoroethyl)-5-methylpyrazolo[1,5-a]pyridine-7-carboxamide]
> 70%: all assays above

Cc1cc2ccnn2c(C(=O)NC(C)C(F)(F)F)c1NC(=O)c1cc(Br)nn1-c1ncccc1Cl (stereo not drawn) [Compound 187, 6-(3-bromo-1-(3-chloropyridin-2-yl)-1H-pyrazole-5-carboxamido)-5-methyl-N-(1,1,1-trifluoropropan-2-yl)pyrazolo[1,5-a]pyridine-7-carboxamide]
> 70%: all assays above

Cc1cc2ccnn2c(C(=O)NCC2CCOCC2)c1NC(=O)c1cc(Br)nn1-c1ncccc1Cl [Compound 195, 6-(3-bromo-1-(3-chloropyridin-2-yl)-1H-pyrazole-5-carboxamido)-5-methyl-N-((tetrahydro-2H-pyran-4-yl)methyl)pyrazolo[1,5-a]pyridine-7-carboxamide]
> 70%: all assays above

Cc1cc2ccnn2c(C(=O)NC(C)(C)CO)c1NC(=O)c1cc(Br)nn1-c1ncccc1Cl [Compound 196, 6-(3-bromo-1-(3-chloropyridin-2-yl)-1H-pyrazole-5-carboxamido)-N-(1-hydroxy-2-methylpropan-2-yl)-5-methylpyrazolo[1,5-a]pyridine-7-carboxamide]
> 70%: all assays above

COc1cc(C(=O)Nc2c(C)cc3ccnn3c2C(=O)NC(C)(C)CO)n(-c2ncccc2Cl)n1 [Compound 197, 6-(1-(3-chloropyridin-2-yl)-3-methoxy-1H-pyrazole-5-carboxamido)-N-(1-hydroxy-2-methylpropan-2-yl)-5-methylpyrazolo[1,5-a]pyridine-7-carboxamide]
> 70%: all assays above

COc1cc(C(=O)Nc2c(C)cc3ccnn3c2C(=O)NCC2CCOCC2)n(-c2ncccc2Cl)n1 [Compound 201, 6-(1-(3-chloropyridin-2-yl)-3-methoxy-1H-pyrazole-5-carboxamido)-5-methyl-N-((tetrahydro-2H-pyran-4-yl)methyl)pyrazolo[1,5-a]pyridine-7-carboxamide]
> 70%: all assays above

COc1cc(C(=O)Nc2c(C)cc3ccnn3c2C(=O)NCC2CCCC2)n(-c2ncccc2Cl)n1 [Compound 203, 6-(1-(3-chloropyridin-2-yl)-3-methoxy-1H-pyrazole-5-carboxamido)-N-(cyclopentylmethyl)-5-methylpyrazolo[1,5-a]pyridine-7-carboxamide]
> 70%: all assays above

COc1cc(C(=O)Nc2c(C)cc3ccnn3c2C(=O)NCC(F)F)n(-c2ncccc2Cl)n1 [Compound 214, 6-(1-(3-chloropyridin-2-yl)-3-methoxy-1H-pyrazole-5-carboxamido)-N-(2,2-difluoroethyl)-5-methylpyrazolo[1,5-a]pyridine-7-carboxamide]
> 70%: all assays above

COc1cc(C(=O)Nc2c(C)cc3ccnn3c2C(=O)NC2CSC2)n(-c2ncccc2Cl)n1 [Compound 215, 6-(1-(3-chloropyridin-2-yl)-3-methoxy-1H-pyrazole-5-carboxamido)-5-methyl-N-(thietan-3-yl)pyrazolo[1,5-a]pyridine-7-carboxamide]
> 70%: all assays above

COc1cc(C(=O)Nc2c(Br)cc3ccnn3c2C(=O)NC(C)C(F)(F)F)n(-c2ncccc2Cl)n1 (stereo not drawn) [Compound 226, 5-bromo-6-(1-(3-chloropyridin-2-yl)-3-methoxy-1H-pyrazole-5-carboxamido)-N-(1,1,1-trifluoropropan-2-yl)pyrazolo[1,5-a]pyridine-7-carboxamide]
> 70%: all assays above

From patent US12024510B2, “Pyrazolopyridine-diamides, their use as insecticide and processes for preparing the same” (PI INDUSTRIES LTD., priority 2017, dated 2024)
